Values after ≈ are worked out from the molar mass of the structure shown. Values joined by “and” are separate entries in the source; they are usually repeats but may differ in a detail not shown here. Equal values may be shown once.

The values that follow come from publication PMC10054091, “Maleic Acid as a Co-Former for Pharmaceutically Active GABA Derivatives: Mechanochemistry or Solvent Crystallization?” (Materials, 2023).

The nature of data set [1]: Solubility in aqueous medium by 1H-NMR of saturated solutions. How it is done: Solubilities: Determination of substance solubilities were performed through ^1H-NMR spectroscopy with a Bruker Avance III NMR-spectrometer at 600 MHz. Saturated solutions of crystalline material were placed in an incubator at 25 °C and moved for 60 min^−1. Three samples of each investigated substance were left for three days under these conditions. Subsequently, 50 μL of the solution was removed from the samples and added to 450 μL of D2O for ^1H-NMR measurements. Solubility was determined by the ratio of integrated solvent to substance peak. Solubility values are presented as averages over the recorded samples with the error margin according to their standard deviation. […]
7 Solubility determination details
Solubilities were determined with 1H-NMR. Three samples for each single compound and three samples for each received maleate gained through grinding or solvent crystalliz ation were prepared. For this, dispersions of the investigated compounds in water were prepared in such a way that no complete dissolution would occur after three days at 25 °C in an incubator shaking with 60 min -1. Subsequently, 50 μL of liquid were removed from the samples and added to 450 μL of D 2O prepared in an NMR-tube. 1H-NMR measurements were conducted on a Bruker Avance III NMR-spectrometer at 600 MHz. Solubilities were determined by phase and baseline correction of the received spectrum in MestReNova software x64 14.2.0, application of D 2O shift on the solvent peak from the MestReNova […]
database. Integration of a chosen signal in the received spectrum and furt her integration of the solvent signal. The latter signal was always integrated in the borders of 5.000 – 4.600 ppm, the product signals were integrated in as narrow a range as possible ( Table S7). Trace water in D 2O w as considered negligible. Solubilities were calculated by the following […]
Where S p is the solubility of the API in gL -1, M p is the molar mass of the targeted API in g mol-1, I w is the value of the water integral received, n is an adjustment factor necessary if […]
= 2 because solvent is water), M w is the molar mass of water in gmol -1 and ρw is the density of water at 25 °C in gL-1. Error was calculated as the standard deviation of the three recorded samples according to Equation 2.
Here V is the standard deviation, x is the average of the three solubility values, x̅ each single solubility value and n the number of samples, three.

The conditions of data set [2]: cited from earlier work.
For data set [3] the following is noted: given enough time. How it is done: PXRD: Powder patterns were recorded on a Rigaku Miniflex 300 powder diffractometer with a Cu-Source and Kα radiation at […] in Θ/2Θ-geometry. Measurements were conducted at ambient temperature in a range of 5–50° 2Θ.
Where [4] appears, read: API solubility, aqueous medium, 25 °C, saturated solutions after three days, 1H-NMR, average of three samples, _M = mechanochemically prepared sample.
Where [5] appears, read: aqueous medium, 25 °C, three days.
Setting [6] is: Table S7, water, 25 °C, three days, three samples, _sol = solvent crystallization, _mill = grinding.
[7] abbreviates: product obtained by grinding (mechanochemical), water, 25 °C, three days.
Where [8] appears, read: product obtained from solution (solvent product), water, 25 °C, three days.

`NCC(CC(=O)O)c1ccc(Cl)cc1.O=C(O)C=CC(=O)O` (stereo not drawn) [5-MA, Baclofen maleate]: in data set [1] (setting [4]), the Solubility is given as 6 gL^−1. Moreover, the “Sp ± V (solubility of the API ± standard deviation)” value is given as 6 ± 0.6 gL-1 in data set [1] (Table S7, water, 25 °C, three days, three samples, _sol = solvent crystallization, _mill = grinding, listed as 5-MA_mill) and 6 ± 0.3 gL-1 in data set [1] (Table S7, water, 25 °C, three days, three samples, _sol = solvent crystallization, _mill = grinding, listed as 5-MA_sol). Moreover, the “Change of solubility of the maleate versus the pure API (in words)” value in data set [1] (setting [5]) is “uniform increases in solubility”.
On to `NCC(CC(=O)O)c1ccccc1` (stereo not drawn) [compound 4, Phenibut, reference compound], for which the “Sp ± V (solubility of the API ± standard deviation)” value in data set [1] (setting [6]) is recorded as 15 ± 0.3 gL-1. Further, the “Increase of API solubility in its maleate compared to the pure form” value (“Increase of API solubility” below) in data set [1] (aqueous medium, 25 °C) is listed as “eightfold”. The compound further registered a solubility (thermodynamic) at 3 days in data set [1] (water) of 15 mg/mL (≈ 83.7 mM). In data set [2], the “pKa of the acid function” value is “around 4”.
For `NCC1(CC(=O)O)CCCCC1.O=C(O)C=CC(=O)O` [2-MA, Gabapentin maleate], the Solubility worked out at 218 ± 8 gL^−1 in data set [1] (setting [4]) and 218 gL^−1 in data set [1] (API solubility, aqueous medium, 25 °C, saturated solutions after three days, 1H-NMR, average of three samples, _M = mechanochemically prepared sample, listed as 2-MA_M). The “Sp ± V (solubility of the API ± standard deviation)” value in data set [1] (setting [6]) was 218 ± 8 gL-1.
For the compound `NCC(CC(=O)O)c1ccccc1.O=C(O)C=CC(=O)O` (stereo not drawn) [4-MA, Phenibut maleate], the Solubility is 124 gL^−1 in data set [1] (setting [4]) and 128 gL^−1 in data set [1] (API solubility, aqueous medium, 25 °C, saturated solutions after three days, 1H-NMR, average of three samples, _M = mechanochemically prepared sample, listed as 4-MA_M). In addition, the “Sp ± V (solubility of the API ± standard deviation)” value came to 128 ± 8 gL-1 in data set [1] (Table S7, water, 25 °C, three days, three samples, _sol = solvent crystallization, _mill = grinding, listed as 4-MA_mill) and 124 ± 4 gL-1 in data set [1] (Table S7, water, 25 °C, three days, three samples, _sol = solvent crystallization, _mill = grinding, listed as 4-MA_sol). Besides, the “Change of solubility of the maleate versus the pure API (in words)” value in data set [1] (setting [5]) is “uniform increases in solubility”.
With `CC(C)CC(CN)CC(=O)O.O=C(O)C=CC(=O)O` (racemic) [(rac)-3-MA-I, (rac)-Pregabalin maleate I], the “Phase stability of the solid form over time” value in data set [3] was “converts to (rac)-3-MA-II”.
In the case of `CC(C)CC(CN)CC(=O)O` (racemic) [(rac)-3•H2O, (rac)-Pregabalin hydrate, reference compound], the “Sp ± V (solubility of the API ± standard deviation)” value in data set [1] (setting [6]) turned out to be 33 ± 1 gL-1. The “Increase of API solubility” value in data set [1] (aqueous medium, 25 °C) was 23 fold. Moreover, in data set [1] (water), the thermodynamic solubility at 3 days turned out to be 33 mg/mL.
On to `NCC1(CC(=O)O)CCCCC1` [compound 2, Gabapentin, reference compound], for which, in data set [1] (setting [6]), the “Sp ± V (solubility of the API ± standard deviation)” value came out at 174 ± 7 gL-1. Besides, the solubility (thermodynamic) at 3 days in data set [1] (water) amounted to 174 mg/mL (≈ 1020 mM). In addition, the “pKa of the acid function” value in data set [2] is on record as “around 4”.
Consider `CC(C)CC(CN)CC(=O)O.O=C(O)C=CC(=O)O` (racemic) [(rac)-3-MA, (rac)-Pregabalin maleate], for which the Solubility in data set [1] (setting [4]) is on record as 719 gL^−1; in data set [1] (API solubility, aqueous medium, 25 °C, saturated solutions after three days, 1H-NMR, average of three samples, _M = mechanochemically prepared sample, listed as (rac)-3-MA_M) it was 556 gL^−1; in data set [1] (setting [7]), 556 ± 19 gL^−1; in data set [1] (setting [8]), 719 ± 10 gL^−1. The “Sp ± V (solubility of the API ± standard deviation)” value was 559 ± 19 gL-1 in data set [1] (Table S7, water, 25 °C, three days, three samples, _sol = solvent crystallization, _mill = grinding, listed as (rac)-3-MA_mill) and 719 ± 10 gL-1 in data set [1] (Table S7, water, 25 °C, three days, three samples, _sol = solvent crystallization, _mill = grinding, listed as (rac)-3-MA_sol).
As for “(S)-Pregabalin maleate hydrate [(S)-3-MA•H2O]”, the Solubility came to 977 gL^−1 in data set [1] (setting [4]); 809 gL^−1 in data set [1] (API solubility, aqueous medium, 25 °C, saturated solutions after three days, 1H-NMR, average of three samples, _M = mechanochemically prepared sample, listed as (S)-3-MA•H2O_M); 809 ± 8 gL^−1 in data set [1] (setting [7]); 977 ± 79 gL^−1 in data set [1] (setting [8]). In addition, the “Sp ± V (solubility of the API ± standard deviation)” value in data set [1] (Table S7, water, 25 °C, three days, three samples, _sol = solvent crystallization, _mill = grinding, listed as (S)-3-MA• H2O_mill) was 809 ± 8 gL-1; in data set [1] (Table S7, water, 25 °C, three days, three samples, _sol = solvent crystallization, _mill = grinding, listed as (S)-3-MA• H2O_sol), 977 ± 79 gL-1.
On to `O=C(O)/C=C\C(=O)O` [MA, Maleic acid], for which, in data set [1], the Solubility is listed as 687 ± 44 gL^−1 and the “Sp ± V (solubility of the API ± standard deviation)” value is reported as 687 ± 44 gL-1. Besides, in data set [1] (water), the solubility (thermodynamic) at 3 days came to 687 mg/mL (≈ 5920 mM). For the same compound, in data set [2], the pKa1 is on record as 1.74 and the pKa2 is recorded as 5.81.
Turning to `CC(C)C[C@H](CN)CC(=O)O` [(S)-3, (S)-Pregabalin, reference compound], the “Sp ± V (solubility of the API ± standard deviation)” value in data set [1] (setting [6]) is on record as 41 ± 1 gL-1. The “Increase of API solubility” value in data set [1] (aqueous medium, 25 °C, listed as (S)-Pregabalin) was 21 fold. Also, the solubility (thermodynamic) at 3 days in data set [1] (water) stood at 41 mg/mL (≈ 257 mM).
Gabapentin maleate hydrate [2-MA•H2O]: in data set [1] (setting [4]), the Solubility is 241 ± 8 gL^−1 and 241 gL^−1. Moreover, in data set [1] (setting [6]), the “Sp ± V (solubility of the API ± standard deviation)” value is listed as 241 ± 8 gL-1.
For the compound `NCC(CC(=O)O)c1ccc(Cl)cc1` (stereo not drawn) [compound 5, Baclofen, reference compound], in data set [1], the “Increase of API solubility” value was “twofold” and the “Sp ± V (solubility of the API ± standard deviation)” value is 3 ± 0.1 gL-1. The thermodynamic solubility at 3 days in data set [1] (water) worked out at 3 mg/mL (≈ 14 mM). For the same compound, the “pKa of the acid function” value in data set [2] is on record as “around 4”.
On to `CC(C)C[C@H](CN)CC(=O)O` [compound 3, Pregabalin, reference compound], for which the “Increase of API solubility” value in data set [1] (aqueous medium, 25 °C, listed as Pregabalin) is on record as “up to twentyfold”. Besides, the “pKa of the acid function” value in data set [2] was “around 4”.

Usually thermodynamic solubility stands for the concentration in solution at equilibrium with solid.
